The values that follow come from patent publication US20090136434A1, “Tyrosinase enzyme inhibitors from fungal hydroxylation of tibolone” (HEJ Research Institute, priority 2007, published 2009).

Data set [1] has as its system Salmonella typhimurium. The conditions noted are these: studies referred to, no data of the applicant; cited from earlier work.
Data set [2] concerns the target mushroom tyrosinase. Put plainly: Tyrosinase inhibition assay (o-diphenolase activity, L-DOPA as substrate). The data set is classed as biochemical. Conditions: mushroom tyrosinase 30 units (28 nM), L-DOPA 0.5 mM, pH 6.8, absorbance at 475 nm, mean ± S.E.M., at least triplicates; read-out: IC50 ± SEM (in μM), tyrosinase inhibitory activity. As to the method:
Tyrosinase inhibition assays were performed in 96-well microplate format using SpectraMax 340 microplate reader (Molecular Devices, CA, USA) according to the method developed by Hearing (1987). Briefly, first the compounds were screened for the o-diphenolase inhibitory activity of tyrosinase using L-DOPA as substrate. […] Compounds were dissolved in methanol to a concentration of 2.5%. 30 units of mushroom tyrosinase (28 nM from Sigma Chemical Co., USA) first preincubated with the compounds in […] Na-phosphate buffer (pH 6.8) for 10 min at 25° C. Then, the L-DOPA (0.5 mM) was added to the reaction mixture and the enzyme reaction was monitored by measuring the change in absorbance at 475 nm (at 37° C.) due to the formation of the DOPA chrome for 10 min. The percent inhibition of the enzyme was calculated as =[…], wherein the B and S are absorbance for the blank and samples, respectively. After screening, the compounds median inhibitory concentration (IC50) was also calculated. […] (Hearing et al., Int J Biochem, 19(12): 1141-71987).

As for `O=c1cc(CO)occ1O` [Kojic acid], in data set [1], the “mutagenic activity in a Salmonella typhimurium assay” value is recorded as “weak mutagenic activity”. Regarding `N[C@@H](Cn1ccc(=O)c(O)c1)C(=O)O` [L-Mimosine, L-mimosine, reference compound], the IC50 (in general, the concentration at which inhibition is half-maximal) in data set [2] turned out to be 3.68 ± 0.022 µM. Regarding `C#CC1(O)CCC2C3C(CCC21C)C1=C(CC(=O)CC1)C(O)C3C` (stereo not drawn) [Metabolite 1, 6β-Hydroxytibolone], the melting point (in general, the temperature, or range, at which the solid turns liquid) lay in the range of 202 to 205 °C. In addition, the half-inhibitory concentration (IC50) in data set [2] was determined as 7.45 ± 0.21 µM. Regarding `C#CC1(O)CC(O)C2C3C(C)CC4=C(CCC(=O)C4)C3CCC21C` (stereo not drawn) [Metabolite 2, 15β-Hydroxytibolone], the IC50 in data set [2] came out at 50.86 ± 0.36 µM. `C#CC1(O)CCC2C3C(C)CC4=CC(=O)CCC4C3CCC21C` (stereo not shown) [Metabolite 3, Δ^4-Tibolone]: the IC50 in data set [2] came to 8.19 ± 0.54 µM. In the case of `C#CC1(O)CCC2C3C(C)CC4=CC(=O)CCC4(O)C3CCC21C` (stereo not drawn) [Metabolite 4, 10β-Hydroxy-Δ^4-Tibolone], the concentration for half-maximal inhibition (IC50) in data set [2] is 119.4 ± 0.2 µM. Molecule `C#CC1(O)CC(O)C2C3C(C)CC4=C(CCC(=O)C4)C3C(O)CC21C` (stereo not drawn) [Metabolite 5, 11α,15β-Dihydroxytibolone] displayed a melting point of 208 to 210 °C. The IC50 in data set [2] is 5.12 ± 0.67 µM.

Consider `C#CC1(O)CC(O)C2C3C(C)C=C4CC(=O)CCC4C3C(O)CC21C` (stereo not drawn) [Metabolite 6, 11α,15β-Dihydroxy-Δ^5-Tibolone], for which the melting point was in the range of 207 to 211 °C. Besides, the IC50 in data set [2] was 7.1 ± 0.13 µM. As to `C#CC1(O)CCC2C3C(C)C(O)C4=CC(=O)CCC4C3CCC21C` (stereo not drawn) [Metabolite 7, 6β-Hydroxy-Δ^4-Tibolone], in data set [2], the IC50 is 36.14 ± 0.21 µM. Still for that read-out and setting: as for `C#CC1(O)CCC2C3C(C)C(OC)C4=CC(=O)CCC4C3CCC21C` (stereo not drawn) [Metabolite 8, 6β-Methoxy-Δ^4-Tibolone], the figure is 25.15 ± 0.24 µM.
